# From ChEMBL document CHEMBL3596148, “Meridianin derivatives as potent Dyrk1A inhibitors and neuroprotective agents” (Bioorg Med Chem Lett, 2015)
# Experiments:
# [1] = Cytotoxicity against human SH-SY5Y cells assessed as cell viability at 30 uM after 24 hrs by MTT assay relative to control; type: cell-based; details: read-out: Activity
# SH-SY5Y [2] = assay: Neuroprotective activity against glutamate-induced neurotoxicity in human SH-SY5Y cells assessed as cell viability at 50 uM incubated for 30 mins prior to glutamate challenge measured after 24 hrs by MTT assay (reference value: 73.8 +/- 4.5%); type: functional; details: read-out: Activity
# SH-SY5Y [3] = assay: Neuroprotective activity against glutamate-induced neurotoxicity in human SH-SY5Y cells assessed as cell viability at 10 uM incubated for 30 mins prior to glutamate challenge measured after 24 hrs by MTT assay (reference value: 73.8 +/- 4.5%); type: functional; details: read-out: Activity
# [4] = target: T1, Dual specificity tyrosine-phosphorylation-regulated kinase 2 (Homo sapiens, UniProt Q92630); assay: Inhibition of Dyrk2 (unknown origin) using Woodtide as substrate after 30 mins by P81 membrane assay in presence of [33P]-g-ATP
# T1 sequence (Q92630 whole entry): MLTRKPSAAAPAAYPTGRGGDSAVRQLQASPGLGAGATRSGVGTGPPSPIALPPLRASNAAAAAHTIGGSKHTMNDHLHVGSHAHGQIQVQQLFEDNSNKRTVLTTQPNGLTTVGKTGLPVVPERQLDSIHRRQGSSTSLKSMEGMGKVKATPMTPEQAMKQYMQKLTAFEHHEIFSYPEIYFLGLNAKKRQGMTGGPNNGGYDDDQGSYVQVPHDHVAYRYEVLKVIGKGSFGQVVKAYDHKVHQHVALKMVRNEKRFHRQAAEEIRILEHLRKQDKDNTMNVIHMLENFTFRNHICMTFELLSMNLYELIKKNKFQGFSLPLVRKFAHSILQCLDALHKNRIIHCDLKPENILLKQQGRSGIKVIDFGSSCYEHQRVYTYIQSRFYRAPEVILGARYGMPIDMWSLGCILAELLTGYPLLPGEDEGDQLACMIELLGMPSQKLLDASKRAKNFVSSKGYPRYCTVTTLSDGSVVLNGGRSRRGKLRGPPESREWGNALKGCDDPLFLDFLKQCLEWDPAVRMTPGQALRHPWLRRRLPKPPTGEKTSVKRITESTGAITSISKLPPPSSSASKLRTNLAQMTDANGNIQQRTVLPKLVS
# [5] = target: T2, Dual specificity tyrosine-phosphorylation-regulated kinase 3 (Homo sapiens, UniProt O43781); assay: Inhibition of Dyrk3 (unknown origin) using Woodtide as substrate after 30 mins by P81 membrane assay in presence of [33P]-g-ATP
# T2 sequence (O43781 whole entry): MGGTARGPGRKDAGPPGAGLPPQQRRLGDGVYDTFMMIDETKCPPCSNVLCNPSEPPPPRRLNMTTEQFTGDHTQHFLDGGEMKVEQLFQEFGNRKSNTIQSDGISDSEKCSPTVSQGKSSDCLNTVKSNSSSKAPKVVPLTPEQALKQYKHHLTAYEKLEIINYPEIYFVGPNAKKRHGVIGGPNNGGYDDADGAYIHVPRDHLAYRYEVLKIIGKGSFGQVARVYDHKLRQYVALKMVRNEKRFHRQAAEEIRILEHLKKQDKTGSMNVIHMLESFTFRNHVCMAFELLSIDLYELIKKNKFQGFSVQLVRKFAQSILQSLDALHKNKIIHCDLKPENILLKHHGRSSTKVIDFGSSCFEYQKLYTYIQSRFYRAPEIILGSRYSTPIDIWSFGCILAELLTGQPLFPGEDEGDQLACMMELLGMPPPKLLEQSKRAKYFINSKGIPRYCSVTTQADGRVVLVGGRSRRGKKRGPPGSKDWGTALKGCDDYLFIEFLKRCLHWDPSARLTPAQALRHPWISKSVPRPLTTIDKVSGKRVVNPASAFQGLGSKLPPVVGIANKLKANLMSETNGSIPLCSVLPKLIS
# [6] = target: RAC-beta serine/threonine-protein kinase (Homo sapiens) (UniProt P31751); assay: Inhibition of PKBbeta (unknown origin) at 0.5 uM relative to control
# Chain of RAC-beta serine/threonine-protein kinase (Homo sapiens) (P31751 whole entry): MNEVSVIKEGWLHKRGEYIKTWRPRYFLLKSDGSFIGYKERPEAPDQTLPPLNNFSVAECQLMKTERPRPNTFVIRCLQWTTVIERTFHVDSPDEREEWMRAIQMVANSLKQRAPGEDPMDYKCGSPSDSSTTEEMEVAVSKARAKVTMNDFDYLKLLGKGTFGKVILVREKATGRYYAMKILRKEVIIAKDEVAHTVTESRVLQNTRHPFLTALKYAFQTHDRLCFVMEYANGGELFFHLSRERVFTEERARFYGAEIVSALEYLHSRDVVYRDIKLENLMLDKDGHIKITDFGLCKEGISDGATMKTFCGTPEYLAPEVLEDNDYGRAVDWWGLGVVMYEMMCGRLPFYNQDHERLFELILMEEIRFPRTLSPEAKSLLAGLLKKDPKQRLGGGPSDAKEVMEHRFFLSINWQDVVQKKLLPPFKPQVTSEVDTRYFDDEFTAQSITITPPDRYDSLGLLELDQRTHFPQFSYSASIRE
# [7] = target: Glycogen synthase kinase-3 beta (Homo sapiens) (UniProt P49841); assay: Inhibition of GSK3beta (unknown origin) at 0.5 uM relative to control
# Chain of Glycogen synthase kinase-3 beta (Homo sapiens) (P49841 whole entry, looked up): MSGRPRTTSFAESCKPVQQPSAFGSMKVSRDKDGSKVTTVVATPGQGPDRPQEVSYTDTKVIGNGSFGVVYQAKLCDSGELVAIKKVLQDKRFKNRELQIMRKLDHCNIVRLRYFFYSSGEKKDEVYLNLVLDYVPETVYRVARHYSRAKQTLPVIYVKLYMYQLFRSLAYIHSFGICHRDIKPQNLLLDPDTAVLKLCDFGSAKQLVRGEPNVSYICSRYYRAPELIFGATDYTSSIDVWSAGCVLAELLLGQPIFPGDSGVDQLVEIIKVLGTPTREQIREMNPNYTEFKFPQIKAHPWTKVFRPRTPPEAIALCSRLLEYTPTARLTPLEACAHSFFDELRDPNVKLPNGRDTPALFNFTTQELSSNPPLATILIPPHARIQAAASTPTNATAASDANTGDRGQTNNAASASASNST
# [8] = target: Cyclin-dependent kinase 2 (Homo sapiens) (UniProt P24941); assay: Inhibition of CDK2 (unknown origin) at 0.5 uM relative to control
# [9] = target: Cyclin-dependent kinase 9 (Homo sapiens) (UniProt P50750); assay: Inhibition of CDK9 (unknown origin) at 0.5 uM relative to control
# Chain of Cyclin-dependent kinase 9 (Homo sapiens) (P50750 whole entry): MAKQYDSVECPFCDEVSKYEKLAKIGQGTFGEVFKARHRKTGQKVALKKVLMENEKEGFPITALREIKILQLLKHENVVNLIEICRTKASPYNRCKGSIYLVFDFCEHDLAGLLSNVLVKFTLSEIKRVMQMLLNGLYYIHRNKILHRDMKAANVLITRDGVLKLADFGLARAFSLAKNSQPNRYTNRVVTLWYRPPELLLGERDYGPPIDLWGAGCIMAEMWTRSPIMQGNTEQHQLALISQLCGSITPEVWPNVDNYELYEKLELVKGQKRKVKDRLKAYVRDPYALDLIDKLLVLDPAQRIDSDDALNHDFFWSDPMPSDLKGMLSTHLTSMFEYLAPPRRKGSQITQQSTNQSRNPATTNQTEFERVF
# [10] = target: Aurora kinase B (Homo sapiens) (UniProt Q96GD4); assay: Inhibition of Aurora B (unknown origin) at 0.5 uM relative to control
# Chain of Aurora kinase B (Homo sapiens) (Q96GD4 whole entry, canonical isoform): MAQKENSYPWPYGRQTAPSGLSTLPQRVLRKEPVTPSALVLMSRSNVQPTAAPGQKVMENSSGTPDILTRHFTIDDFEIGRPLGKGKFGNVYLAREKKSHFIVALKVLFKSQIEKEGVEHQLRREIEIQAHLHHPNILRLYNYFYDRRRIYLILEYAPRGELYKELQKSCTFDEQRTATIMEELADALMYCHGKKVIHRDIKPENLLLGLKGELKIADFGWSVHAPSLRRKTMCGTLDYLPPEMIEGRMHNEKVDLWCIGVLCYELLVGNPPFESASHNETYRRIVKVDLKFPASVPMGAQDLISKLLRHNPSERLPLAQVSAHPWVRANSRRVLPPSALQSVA
# [11] = target: Casein kinase I isoform alpha (Homo sapiens) (UniProt P48729); assay: Inhibition of CK1 (unknown origin) at 0.5 uM relative to control
# Chain of Casein kinase I isoform alpha (Homo sapiens) (P48729 2-337 limits assumed): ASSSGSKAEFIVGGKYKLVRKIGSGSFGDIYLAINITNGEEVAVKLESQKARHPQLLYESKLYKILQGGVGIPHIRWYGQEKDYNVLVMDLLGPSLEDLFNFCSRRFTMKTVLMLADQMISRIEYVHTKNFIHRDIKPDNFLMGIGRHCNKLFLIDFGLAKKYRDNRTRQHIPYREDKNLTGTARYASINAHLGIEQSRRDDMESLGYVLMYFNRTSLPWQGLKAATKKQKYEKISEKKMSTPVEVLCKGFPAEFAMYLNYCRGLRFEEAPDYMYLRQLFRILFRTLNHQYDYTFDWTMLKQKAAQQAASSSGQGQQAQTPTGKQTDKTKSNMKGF
# [12] = target: T3, Inhibitor of nuclear factor kappa-B kinase subunit beta (Homo sapiens) (UniProt O14920); assay: Inhibition of IKKbeta (unknown origin) at 0.5 uM relative to control
# T3 sequence (whole entry): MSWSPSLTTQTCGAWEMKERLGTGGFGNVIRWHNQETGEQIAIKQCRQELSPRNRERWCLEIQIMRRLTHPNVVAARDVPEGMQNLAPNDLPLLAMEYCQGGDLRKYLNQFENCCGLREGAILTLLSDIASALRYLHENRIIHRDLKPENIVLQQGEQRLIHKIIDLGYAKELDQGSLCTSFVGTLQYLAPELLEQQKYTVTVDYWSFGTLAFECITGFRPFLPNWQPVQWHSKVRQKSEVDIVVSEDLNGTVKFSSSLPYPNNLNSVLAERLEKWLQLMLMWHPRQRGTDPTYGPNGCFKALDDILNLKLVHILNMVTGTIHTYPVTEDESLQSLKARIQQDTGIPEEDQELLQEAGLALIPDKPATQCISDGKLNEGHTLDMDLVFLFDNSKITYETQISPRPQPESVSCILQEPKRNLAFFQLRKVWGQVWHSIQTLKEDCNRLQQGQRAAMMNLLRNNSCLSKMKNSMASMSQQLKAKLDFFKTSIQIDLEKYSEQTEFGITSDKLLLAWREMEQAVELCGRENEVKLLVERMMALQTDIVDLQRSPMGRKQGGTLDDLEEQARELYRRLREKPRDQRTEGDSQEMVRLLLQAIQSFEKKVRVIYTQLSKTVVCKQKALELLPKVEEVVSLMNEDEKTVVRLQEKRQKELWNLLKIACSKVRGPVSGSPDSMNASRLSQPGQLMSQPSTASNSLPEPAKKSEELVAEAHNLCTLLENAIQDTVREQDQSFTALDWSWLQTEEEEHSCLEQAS
# [13] = target: Tyrosine-protein kinase ABL1 (Homo sapiens) (UniProt P00519); assay: Inhibition of Abl (unknown origin) at 0.5 uM relative to control
# Chain of Tyrosine-protein kinase ABL1 (Homo sapiens) (P00519 whole entry): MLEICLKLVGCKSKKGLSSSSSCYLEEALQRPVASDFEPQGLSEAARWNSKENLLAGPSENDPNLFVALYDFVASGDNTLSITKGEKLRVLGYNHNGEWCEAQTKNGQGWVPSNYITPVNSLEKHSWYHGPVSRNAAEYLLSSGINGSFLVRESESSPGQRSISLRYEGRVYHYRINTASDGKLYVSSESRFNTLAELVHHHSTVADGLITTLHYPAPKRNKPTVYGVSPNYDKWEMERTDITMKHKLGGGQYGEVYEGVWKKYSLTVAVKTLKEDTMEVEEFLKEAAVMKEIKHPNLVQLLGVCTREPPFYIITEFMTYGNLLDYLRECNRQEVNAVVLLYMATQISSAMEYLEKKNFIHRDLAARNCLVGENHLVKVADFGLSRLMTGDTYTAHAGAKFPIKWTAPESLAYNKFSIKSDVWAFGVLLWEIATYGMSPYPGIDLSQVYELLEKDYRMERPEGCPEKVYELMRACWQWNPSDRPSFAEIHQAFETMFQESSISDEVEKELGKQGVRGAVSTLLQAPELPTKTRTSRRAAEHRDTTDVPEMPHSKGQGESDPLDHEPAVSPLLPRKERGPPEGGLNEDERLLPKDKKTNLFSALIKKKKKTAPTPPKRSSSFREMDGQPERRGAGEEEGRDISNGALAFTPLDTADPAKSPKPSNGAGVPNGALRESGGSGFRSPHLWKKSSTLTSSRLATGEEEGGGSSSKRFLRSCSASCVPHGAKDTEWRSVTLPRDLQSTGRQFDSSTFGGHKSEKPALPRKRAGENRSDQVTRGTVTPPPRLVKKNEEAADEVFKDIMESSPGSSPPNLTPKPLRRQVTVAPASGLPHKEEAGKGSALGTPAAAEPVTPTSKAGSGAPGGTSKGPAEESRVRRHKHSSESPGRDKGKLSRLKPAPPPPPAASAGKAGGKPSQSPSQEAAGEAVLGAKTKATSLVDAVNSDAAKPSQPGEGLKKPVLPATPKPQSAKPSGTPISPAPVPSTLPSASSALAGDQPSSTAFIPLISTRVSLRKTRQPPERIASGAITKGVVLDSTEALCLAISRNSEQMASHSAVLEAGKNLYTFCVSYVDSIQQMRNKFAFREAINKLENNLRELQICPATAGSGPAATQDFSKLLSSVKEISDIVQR
# [14] = target: Insulin receptor (Homo sapiens) (UniProt P06213); assay: Inhibition of IR (unknown origin) at 0.5 uM relative to control
# [15] = target: Vascular endothelial growth factor receptor 1 (Homo sapiens) (UniProt P17948); assay: Inhibition of VEGFR1 (unknown origin) at 0.5 uM relative to control
# Chain of Vascular endothelial growth factor receptor 1 (Homo sapiens) (P17948 whole entry): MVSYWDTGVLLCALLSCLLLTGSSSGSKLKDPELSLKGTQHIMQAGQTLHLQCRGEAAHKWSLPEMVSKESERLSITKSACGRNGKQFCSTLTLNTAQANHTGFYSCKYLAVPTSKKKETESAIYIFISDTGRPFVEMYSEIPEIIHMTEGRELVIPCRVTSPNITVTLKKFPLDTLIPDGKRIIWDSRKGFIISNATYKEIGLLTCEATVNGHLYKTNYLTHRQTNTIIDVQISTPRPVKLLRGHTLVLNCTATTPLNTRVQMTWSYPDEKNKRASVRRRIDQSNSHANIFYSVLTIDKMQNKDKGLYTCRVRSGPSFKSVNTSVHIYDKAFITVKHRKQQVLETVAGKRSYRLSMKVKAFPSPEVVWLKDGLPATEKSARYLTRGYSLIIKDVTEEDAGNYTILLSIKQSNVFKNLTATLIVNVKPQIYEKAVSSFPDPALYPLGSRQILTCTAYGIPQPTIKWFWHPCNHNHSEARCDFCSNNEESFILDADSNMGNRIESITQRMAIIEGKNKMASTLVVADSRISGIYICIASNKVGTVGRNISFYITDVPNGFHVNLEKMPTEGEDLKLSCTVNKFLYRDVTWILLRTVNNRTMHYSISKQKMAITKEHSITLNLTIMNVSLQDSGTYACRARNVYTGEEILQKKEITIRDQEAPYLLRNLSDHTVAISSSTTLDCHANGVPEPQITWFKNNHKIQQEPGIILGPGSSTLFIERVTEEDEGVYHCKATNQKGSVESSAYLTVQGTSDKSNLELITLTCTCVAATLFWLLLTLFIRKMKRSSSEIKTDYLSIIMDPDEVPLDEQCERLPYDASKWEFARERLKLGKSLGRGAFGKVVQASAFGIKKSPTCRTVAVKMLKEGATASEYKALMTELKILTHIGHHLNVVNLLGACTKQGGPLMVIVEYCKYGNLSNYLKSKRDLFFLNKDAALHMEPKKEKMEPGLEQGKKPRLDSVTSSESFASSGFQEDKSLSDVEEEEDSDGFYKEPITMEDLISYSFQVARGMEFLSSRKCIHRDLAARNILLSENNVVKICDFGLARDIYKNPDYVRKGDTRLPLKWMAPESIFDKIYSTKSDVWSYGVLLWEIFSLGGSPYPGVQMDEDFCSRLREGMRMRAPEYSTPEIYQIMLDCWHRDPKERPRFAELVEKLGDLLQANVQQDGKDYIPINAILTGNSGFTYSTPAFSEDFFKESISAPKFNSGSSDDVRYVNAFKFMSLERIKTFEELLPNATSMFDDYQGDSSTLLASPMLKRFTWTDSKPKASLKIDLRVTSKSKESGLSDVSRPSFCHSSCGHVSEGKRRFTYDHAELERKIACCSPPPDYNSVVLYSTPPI
smiles,measurement,setting,value
Nc1nccc(-c2cn(C(=O)N3CCOCC3)c3ccc(Br)cc23)n1,"viability at 24 h, 30 µM",[1],87%
same,viability at 50 µM,SH-SY5Y [2],86.4%
same,viability at 10 µM,SH-SY5Y [3],82.5%
same,IC50,[4],1400 nM
same,IC50,[5],2200 nM
same,inhibition,[6],12.6%
same,inhibition,[7],22.7%
same,inhibition,[8],0%
same,inhibition,[9],12.6%
same,inhibition,[10],0%
same,inhibition,[11],13.8%
same,inhibition,[12],7.8%
same,inhibition,[13],3%
same,inhibition,[14],11.1%
same,inhibition,[15],0%
